In patent EP0351784A2, “Therapeutic use of the isopropyl ester derivative of monosialoganglioside in nervous pathologies with an inflammatory component” (FIDIA S.p.A., priority 1988, dated 1990):

Experiments:
[1] = system: Sprague-Dawley rats; assay: acetic acid-induced peritonitis test (antiexudative activity); assay type: in vivo, rat; settings: for % inhibition: peritoneal exudate
Protocol: The study was conducted on Sprague-Dawley rats, weighing between 200 and 300 gr. An evaluation was made of the capacity of the isopropyl ester of GM₁ ganglioside (hereafter known as AGF₄₄) and GM₁ itself, to inhibit the formation of peritoneal exudate following intraperitoneal injection (10 ml/kg) of a 0.5% acetic acid solution. To study administration by oral, subcutaneous and intraperitoneal routes, AGF₄₄ and GM₁ (solubilized in 10 ml/kg of sterile saline physiological solution) and a comparison compound indomethacin were administered by the individual routes one hour before the injection of acetic acid. To study topical administration, one hour before i.p. injection of acetic acid, AGF₄₄ and GM₁ in the form of 0.1% aqueous gels and the comparison 5% Artrosilene gel (ketoprofen lysine salt) were applied to the right paws with a light massage for 30 seconds to ensure complete absorption of the gel. The control groups received saline physiological solution (10 ml/kg) and placebo gel (0.2 ml/rat), respectively. 30 minutes after exudate inducement the animals were sacrificed, samples were taken of the peritoneal exudate and the percentage of inhibition of the same in relation to control values was calculated.

[2] = system: male Sprague Dawley rats; assay: carrageenan-induced edema test in the paw (antiedematous activity); assay type: in vivo, rat; settings: for % inhibition: paw volume increase at 3rd hour
Protocol: The study was conducted on male Sprague Dawley rats, weighing about 160 ± 10 gr. An evaluation was made of the activity of the isopropyl ester of GM₁ ganglioside (AGF₄₄) and GM₁ in inhibiting the formation of edema following injection of a sterile aqueous solution of 1% carrageenan into the plantar aponeurosis of the right hand paw (0.1 ml/rat). To study administration by oral, subcutaneous and intraparitoneal routes, AGF₄₄ and GM₁ (solubilized in 10 ml/kg of sterile saline physiological solution) were compared to indomethacin as a comparison compound. For study of the oral route, each compound was administered by oral route one hour before injection of carrageenan. For study of the subcutaneous and intraperitoneal routes, each compound was administered 30 minutes before the same. To study topical administration, AGF₄₄ and GM₁ (as 0.1% aqueous gels) were compared to 5% Artrosilene gel (ketoprefene lysine salt). Each compound was applied locally to the right paw, and administration was effected twice, one hour before and immediately after injection of carrageenan, massaging lightly for 30 seconds to ensure complete absorption. The control groups received saline physiological solution (10 ml/kg) and placebo gel (0.2-0.4 ml/rat twice) respectively. Plethysmometric evaluation of the volume of the right paw was effected immediately before sub-plantar injection of carrageenan an 3 hours after the same. The antiedematous effect of the treatment was calculated by evaluating the average increase in paw volume at the 3rd hour (compared to time 0) based on control values.

[3] = intraperitoneal, 1 mg/kg, one hour before acetic acid
[4] = oral, 1 mg/kg, one hour before i.p. 0.5% acetic acid (10 ml/kg)
[5] = oral, 2.5 mg/kg, one hour before acetic acid
[6] = subcutaneous, 1 mg/kg, one hour before acetic acid
[7] = subcutaneous, 2.5 mg/kg, one hour before acetic acid
[8] = intraperitoneal, 1 mg/kg, 30 minutes before carrageenan
[9] = intraperitoneal, 5 mg/kg, 30 minutes before carrageenan
[10] = oral, 1 mg/kg, one hour before 1% carrageenan
[11] = oral, 5 mg/kg, one hour before carrageenan
[12] = subcutaneous, 1 mg/kg, 30 minutes before carrageenan
[13] = subcutaneous, 5 mg/kg, 30 minutes before carrageenan
[14] = intraperitoneal, 2.5 mg/kg, one hour before acetic acid
[15] = topical to right paw, 0.1% gel 0.2 ml/rat, 1.4 mg/kg, one hour before acetic acid
[16] = intraperitoneal, 2 mg/kg, 30 minutes before carrageenan
[17] = oral, 2 mg/kg, one hour before carrageenan
[18] = subcutaneous, 2 mg/kg, 30 minutes before carrageenan

COc1ccc2c(c1)c(CC(=O)O)c(C)n2C(=O)c1ccc(Cl)cc1 [Indomethacin, indomethacin, reference compound]
% inhibition [1, 3]: 70% | % inhibition [1, 4]: 74% | % inhibition [1, 5]: 90% | % inhibition [1, 6]: 64% | % inhibition [1, 7]: 84% | % inhibition [2, 8]: 23% | % inhibition [2, 9]: 67% | % inhibition [2, 10]: 22% | % inhibition [2, 11]: 67% | % inhibition [2, 12]: 30% | % inhibition [2, 13]: 60%

isopropyl ester of GM₁ ganglioside [GM1 isopropyl ester]
Peritoneal exudate inhibition ([1]; after oral administration): 70-80% | antiexudative efficacy ([1]; at doses of less than 0.1 mg/kg (in the order of 0.1 mg/kg)): efficacious | antiexudative activity ([1]; at doses of over 10 mg/kg): the activity decreases | antiexudative activity compared with indomethacin ([1]; oral, at 1 mg/kg): comparable to that of indomethacin | % inhibition [1, 3]: 55% | % inhibition [1, 14]: 60% | % inhibition ([1]; intraperitoneal, 5 mg/kg, one hour before acetic acid): 64% | % inhibition [1, 4]: 70% | % inhibition [1, 5]: 72% | % inhibition ([1]; oral, 5 mg/kg, one hour before acetic acid): 77% | % inhibition [1, 6]: 47% | % inhibition [1, 7]: 61% | % inhibition ([1]; subcutaneous, 5 mg/kg, one hour before acetic acid): 70% | % inhibition [1, 15]: 43% | antiinflammatory activity ([2]; at doses of over 10 mg/kg): it diminishes at doses of over 10 mg/kg | Maximum efficacy (inhibition) ([2]; by oral route): 50-60% | % inhibition [2, 8]: 18% | % inhibition [2, 16]: 32% | % inhibition [2, 9]: 57% | % inhibition [2, 10]: 20% | % inhibition [2, 17]: 32% | % inhibition [2, 11]: 60% | % inhibition [2, 12]: 25% | % inhibition [2, 18]: 30% | % inhibition [2, 13]: 50% | % inhibition ([2]; topical, 0.1% gel 0.2 ml/rat/twice, 1.25 x 2 mg/kg): 32% | % inhibition ([2]; topical, 0.1% gel 0.4 ml/rat/twice, 2.5 x 2 mg/kg): 43%

GM₁ ganglioside [GM1, reference compound]
% inhibition [1, 3]: 47% | % inhibition [1, 14]: 51% | % inhibition [1, 4]: 56% | % inhibition [1, 5]: 63% | % inhibition [1, 6]: 44% | % inhibition [1, 7]: 52% | % inhibition [1, 15]: 30% | % inhibition [2, 16]: 20% | % inhibition [2, 9]: 30% | % inhibition [2, 17]: 20% | % inhibition [2, 11]: 32% | % inhibition [2, 18]: 19% | % inhibition [2, 13]: 31% | % inhibition ([2]; topical, 0.1% gel 0.2 ml/rat/twice, dose in mg/kg not given): 20%
